Patent publication US20100210540A1, “USE OF THE PEPTIDE COMBINATION THYMOSIN BETA 4 AND DELTA SLEEP INDUCING PEPTIDE AS A THERAPEUTIC AGENT” (priority 2007, published 2010)
Where no end group is shown, it is not given here.

Legend:
HCMV strain AD169 = experiment: HCMV plaque formation assay in MRC-5 cells; assay type: cell-based; conditions: for inhibition of HCMV plaque formation as compared to the virus control experiment: 10 micrograms per ml, 7-10 days
From the text: Ganciclovir was used as positive control.

HIV-1III8 = experiment: HIV-1 antiviral assay in CEM-SS cells (MTS readout)
HUVEC = experiment: Endothelial tube formation assay; assay type: cell-based, human; conditions: 10 micrograms per ml, 20 hours
From the text: Positive control was vehicle only.

Interleukin-5 (IL-5) = experiment: Th1/Th2 cytokine profiling assay: IL-5; assay type: cell-based, Balb/c mice; conditions: 10 micrograms per ml; Ovalbumin restimulation; 72 hours
From the text: (§1) The Balb/c mice (originated in 1923, it is a popular strain and is used in many different research disciplines. Also classified as an inbred from the production of 20 or more successive brother-sister matings, the Balb/c mouse is albino and small in size) were immunized on Days 1, 15, and 29 with Ovalbumin (Ovalbumin is the main protein found in egg white, commonly used to stimulate an immunological reaction in test animals) in PBS (5 micrograms/injection). On day 50, spleens of the mice were harvested (3 weeks after last boost with Ovalbumin). Cells were cultured (2×10^5/well in triplicate) and incubated with culture medium or test peptides—10 micrograms per ml—for 30 min. Thereafter, additional Ovalbumin was added to the cells at 10 micrograms/ml for in vitro restimulation of the cells. 72 hours later, cell supernatants were harvested and assayed using the Becton Dickinson Mouse Th1fTh2 Cytokine CBA Kit. This kit can be used to measure Interleukin-2 (IL-2), Interleukin-4 (IL-4), Interleukin-5 (IL-5), Interferon-γ (IFN-γ), and Tumor Necrosis Factor-α (TNF-α) protein levels in a single sample. The kit performance has been optimized for analysis of physiologically relevant concentrations (pg/ml levels) of specific cytokine proteins in tissue culture supernatants and serum samples.

RAW 264.7 cells = experiment: Phagocytosis assay (Fluorescein-labeled Escherichia coli, flow cytometry); assay type: cell-based, Mouse; conditions: 10 micrograms per ml
Method: RAW 264.7 (Mouse leukaemic monocyte macrophage cell line) cells were obtained from ATCC and grown in RPMI 1640 medium containing 10% FBS. Cells were incubated in 12×75 mm tubes at 37° C. with test peptides—10 micrograms per ml—for 30 min prior to adding Fluorescein-labeled Escherichia coli bacteria as the agent to be ingested. After the cells were incubated for additional 60 min at 37° C. and allowed to ingest the Fluorescein-labeled Escherichia coli bacteria, cells were fixed with 1% paraformaldehyde. The samples were then analyzed by flow cytometry to determine the amount of phagocytosis as a function of brightness (the greater the phagocytic activity, the more fluorescence in the macrophage population). Data are reported as % positive and the mean fluorescence intensity (MFI) of positively stained cells.

[1] = test system: cyclic AMP generation in human peripheral blood mononuclear cells (PBMC); experiment: cAMP induction assay (ELISA); assay type: cell-based; conditions: 10 micrograms per ml; 10 min at 37° C.
From the text: Adenosine 3′,5′-cyclic monophosphate (cyclic AMP; cAMP) is one of the most important “second messengers” involved as a modulator of physiological processes. cAMP is also involved in regulating neuronal, glandular, cardiovascular, immune and other functions and actions in a regulatory way. For being a second messenger, cAMP has the following characteristics to work effectively: 1) Amplification—when a few peptide molecules signal the cell, it needs to respond with a signal that is strong enough to get a job done without repeated high levels of stimulation. 2) Control—eventually a response must be shut down, and there are instances when its necessary to respond a little or a lot—so control is needed. 3)—Specificity—when a peptide is utilized, a given cell should respond in a specific way. Not all cells will respond to this peptide and therefore they cannot have the same effect in all the cells. Elevated levels of cAMP in human cells are associated with the suppression of cell activation.
The cAMP kit was used as an immunoassay for the quantitative determination of cyclic AMP generation in human peripheral blood mononuclear cells (PBMC). […]; 50 micrograms per ml), or test peptides—10 micrograms per ml—were added. […]. NaOH was added to neutralize the samples. Plates were centrifuged for 15 min at 2500 rpm and the supernatants removed. […]

[2] = test system: hepatitis B virus (HBV) ayw strain; experiment: HBV experimental assay system (secreted HBV DNA, TaqMan PCR); assay type: cell-based; conditions: 10 micrograms per ml; HepG2-2.2.15 cells; six days
[3] = Th1/Th2 cytokine profiling assay: IL-2; assay type: cell-based, Balb/c mice; conditions: 10 micrograms per ml; Ovalbumin restimulation; 72 hours
From the text: as §1

Interleukin-4 (IL-4) = experiment: Th1/Th2 cytokine profiling assay: IL-4; assay type: cell-based, Balb/c mice; conditions: 10 micrograms per ml; Ovalbumin restimulation; 72 hours
From the text: as §1

[4] = test system: Tumor Necrosis Factor-α (TNF-α); experiment: Th1/Th2 cytokine profiling assay: TNF-α; assay type: cell-based, Balb/c mice; conditions: 10 micrograms per ml; Ovalbumin restimulation; 72 hours
From the text: as §1

Interferon-γ (IFN-γ) = experiment: Th1/Th2 cytokine profiling assay: IFN-γ; assay type: cell-based, Balb/c mice; conditions: 10 micrograms per ml; Ovalbumin restimulation; 72 hours
From the text: as §1

[5] = test system: Primary Human endothelial cells (HUVEC); experiment: Endothelial cell migration assay; assay type: cell-based; conditions: 10 micrograms per ml, 22 hours
Method: Thereafter, designated concentration of testing peptides—10 micrograms per ml—was added in duplicate wells.

Nc1nc(O)c2ncn(COC(CO)CO)c2n1 [Ganciclovir, reference compound]
antiviral activity of positive control compound (HCMV strain AD169; positive control): expected levels of antiviral activity

CC(C)(C)NC(=O)[C@@H]1CN(Cc2cccnc2)CCN1C[C@@H](O)C[C@@H](Cc1ccccc1)C(=O)N[C@H]1c2ccccc2C[C@H]1O [indinavir]
antiviral activity of positive control compounds (HIV-1III8): expected levels of antiviral activity

Trp-Ala-Gly-Gly-Asp-Ala-Ser-Gly-Glu-OH (WAGGDASGE-OH) [Peptide 2]
inhibition of HCMV plaque formation as compared to the virus control experiment (HCMV strain AD169): 4.4%
inhibition of the tube formation of human endothelial cells (HUVEC): 3%
production of IL-5 in murine spleen cells (change) (Interleukin-5 (IL-5)): did not significantly change
inhibitory effects on the phagocytic activity of murine macrophages (RAW 264.7 cells): no inhibitory effects
cAMP formation in PBMC (induced by) [1]: no effects
inhibition of HBV replication on tested liver cells [2]: no effect
production of IL-2 in murine spleen cells (induced by) [3]: 38.1%
production of IL-4 in murine spleen cells (induced by) (Interleukin-4 (IL-4)): 70.6%
production of TNF-alpha in murine spleen cells (change) [4]: did not significantly change
production of IFN-γ in murine spleen cells (decreased by) (Interferon-γ (IFN-γ)): 40.8%

Ac-Ser-Asp-Lys-Pro-Asp-Met-Ala-Glu-Ile-Glu-Lys-Phe-Asp-Lys-Ser-Lys-Leu-Lys-Lys-Thr-Glu-Thr-Gln-Glu-Lys-Asn-Pro-Leu-Pro-Ser-Lys-Glu-Thr-Ile-Glu-Gln-Glu-Lys-Gln-Ala-Gly-Glu-Ser-OH (SDKPDMAEIEKFDKSKLKKTETQEKNPLPSKETIEQEKQAGES; printed: Ser-Asp-Lys-Pro-Asp-Met-Ala-Glu-Ile-Glu-Lys-Phe-Asp-Lys-Ser-Lys-Leu-Lys-Lys-Thr-Glu-Thr-Gln-Glu-Lys-Asn-Pro-Leu-Pro-Ser-Lys-Glu-Thr-Ile-Glu-Gln-Glu-Lys-Gln-Ala-Gly-Glu-Ser-) [Peptide 1]
inhibition of HCMV plaque formation as compared to the virus control experiment (HCMV strain AD169): 1.0%
inhibition of the tube formation of human endothelial cells (HUVEC): 23%
production of IL-5 in murine spleen cells (change) (Interleukin-5 (IL-5)): did not significantly change
phagocytosis induced, as compared to the control experiment (RAW 264.7 cells; 30 min preincubation, 60 min ingestion): 45.7%
inhibition of the migration of human endothelial cells [5]: 3%
cAMP formation in PBMC (induced by) [1]: 15.8%
inhibition of HBV replication on tested liver cells [2]: no effect
production of IL-2 in murine spleen cells (induced by) [3]: did not significantly change
production of IL-4 in murine spleen cells (induced by) (Interleukin-4 (IL-4)): 31.6%
production of TNF-alpha in murine spleen cells (change) [4]: did not significantly change
production of IFN-γ in murine spleen cells (decreased by) (Interferon-γ (IFN-γ)): 52.7%

Cc1cn([C@H]2C[C@H](N=[N+]=[N-])[C@@H](CO)O2)c(=O)[nH]c1=O [AZT]
antiviral activity of positive control compounds (HIV-1III8): expected levels of antiviral activity
